These results are taken from US20230134714A1, “COMPOSITIONS COMPRISING BACTERIAL STRAINS” (4D PHARMA RESEARCH LIMITED, priority 2018, published 2023).

The subject of experiment [1] is graft versus host disease (GVHD) induced in Balb/C mice. Description: GVHD model (TBI plus allogeneic cell transfer). Format: in vivo. From the text:
All animals were weighed and randomized by weight into treatment groups prior to study start. Prior to GVHD induction on Days −1 and 0, all animals were pre-treated (PO) with PBS (Groups 1-4), NCIMB 43171 (Group 5), or Butyrate salt control (Group 6) daily starting on Day −14. Butyrate was used as a positive control as butyrate deficit has been identified in the gut of GVHD patients.
GVHD was induced in mice using a single acute dose of 8 Gy of total body irradiation (TBI) on Day −1. On Day 0, these recipient mice were given an intravenous injection of a combination of T cell depleted bone marrow cells and splenic cells from donor C57Bl/6 mice in PBS. Bone marrow cells were isolated using standard flushing practices, and were T cell depleted using the cell surface T cell antigen CD3, with a CD3-biotin kit (Miltenyi Biotec catalog 130-094-973). Splenocytes were isolated using Miltenyi GentleMACS Dissociators. Animals in Group 1 served as naïve controls and received neither TBI nor cell transfer. […] Animals in Group 3 served as syngeneic adoptive transfer controls; these animals received 8 Gy of TBI on Day −1, and an intravenous injection of a combination of T cell depleted bone marrow cells and splenic cells from donor Balb/C mice in sterile PBS.
Daily test article dosing continued for the duration of the study (Days −14 to 30). Animal survival was recorded daily, as an indication of GVHD severity. Animals were also weighed, observed, and given a clinical GVHD score daily for the duration of the study following GVHD induction. The GVHD score was assessed by a standard scoring system based on five criteria (Table 21): percentage of weight change, posture (hunching), activity, fur texture, and skin integrity (maximum score=10).
On Day 29, all surviving animals underwent endoscopy to monitor colonic inflammation.
On Day 30, blood was collected by RO bleed; blood (approximately 150-300 μL) was collected into two tubes—approximately two third of the blood was collected into K2EDTA tubes, and the remaining one third was collected into lithium-heparin tubes. Both samples were centrifuged and processed for plasma, and plasma tubes were clearly labeled to indicate the anti-coagulant used. For the K2EDTA sample, plasma was aliquoted as follows: 25 μL (for use in downstream citrulline assay), and remainder. All plasma was frozen at −80° C. All K2EDTA samples were assessed for citrulline by ELISA upon study completion

Experiment [2] has as its system HDAC. Briefly: Global HDAC activity analysis in HT-29 cells. Format: cell-based. The note with it: for inhibition of total HDAC activity: whole HT-29 cells or cell lysate not specified. The protocol:
Whole cells and cell free supernatants of stationary phase 43042 cultures were isolated by centrifugation and filtering in a 0.22 uM filter. HT-29 cells were used 3 days' post confluence and stepped down in 1 mL DTS 24 hours prior to commencement of the experiment. The HT-29 cells were challenged with 10% cell free supernatant diluted in DTS and this was left to incubate for 48 hours. […] proteins were then extracted using the Sigma Aldrich […] extraction kit and samples were snap frozen prior to HDAC activity measurement. HDAC activity kit was assessed fluorometrically using the Sigma Aldrich (UK) kit.
(§1) To investigate which metabolites were responsible for the strain-induced HDAC inhibition, different concentrations of hexanoic acid, valeric acid and sodium butyrate were measured for their HDAC inhibition on whole HT-29 cells and on HT-29 cell lysate.

Experiment [3] relates to HDAC. Briefly: HDAC inhibition on HT-29 cell lysate. Format: biochemical. Particulars: different concentrations. The protocol:
as §1

Where [4] appears, read: compared with Group 4 (PBS-TBI+allogeneic transfer).

Counter-ions that a name gives are not always drawn.

On to `CCCC(=O)O` [Butyrate salt control], for which the “mean body weight over the course of the study” value is given as “significantly decreased” in experiment [1] (compared to Group 1 (PBS-naive)), “significantly decreased” in experiment [1] (compared to Group 3 (PBS-TBI+syngeneic transfer)) and “No significant differences” in experiment [1] (setting [4]). Besides, the “mean colitis severity scores” value in experiment [1] (endoscopy Day 29, compared to naive mice (Group 1)) was “increased”.

In the case of `CCCCC(=O)O` [Valeric acid, valeric acid], the “inhibition of total HDAC activity” value in the experiment on HDAC [2] is “inhibited total HDAC activity”.

In the case of `CCCCCC(=O)O` [hexanoic acid], the “inhibition of total HDAC activity” value in the experiment with HDAC [2] is reported as “did show significant inhibitory activity”.

Take `CCCC(=O)[O-].[Na+]` [sodium butyrate, Sodium butyrate]: in the experiment on HDAC [3], the “inhibition of HDAC activity on HT-29 cell lysate” value was “significant (P<0.05) inhibition”. Further, in the experiment with HDAC [2] (different concentrations, whole cells), the “inhibition of HDAC activity on whole HT-29 cells” value is “significant (P<0.05) inhibition”.

`C=CC[C@@H]1/C=C(\C)C[C@H](C)C[C@H](OC)[C@H]2O[C@@](O)(C(=O)C(=O)N3CCCC[C@H]3C(=O)O[C@H](/C(C)=C/[C@@H]3CC[C@@H](O)[C@H](OC)C3)[C@H](C)[C@@H](O)CC1=O)[C@H](C)C[C@@H]2OC` [tacrolimus]: in experiment [1] (compared to Group 3), the “mean GVHD scores” value is reported as “trend was also observed”. Further, the “mean body weight over the course of the study” value in experiment [1] (setting [4]) is given as “same trend was observed”.
